Test results: PMC6437697 (Journal of Medicinal Chemistry, 2019)

Columns and labels:
Experiment in all cases: KINOMEscan
Format in all cases: binding
Details in all cases: read-out: % control activity remaining
[1] = molecular target: T1, RIOK1 (Homo sapiens, UniProt Q9BRS2)
T1 construct: purchased Eurofins DiscoverX KINOMEscan
T1 sequence (Q9BRS2 1-568): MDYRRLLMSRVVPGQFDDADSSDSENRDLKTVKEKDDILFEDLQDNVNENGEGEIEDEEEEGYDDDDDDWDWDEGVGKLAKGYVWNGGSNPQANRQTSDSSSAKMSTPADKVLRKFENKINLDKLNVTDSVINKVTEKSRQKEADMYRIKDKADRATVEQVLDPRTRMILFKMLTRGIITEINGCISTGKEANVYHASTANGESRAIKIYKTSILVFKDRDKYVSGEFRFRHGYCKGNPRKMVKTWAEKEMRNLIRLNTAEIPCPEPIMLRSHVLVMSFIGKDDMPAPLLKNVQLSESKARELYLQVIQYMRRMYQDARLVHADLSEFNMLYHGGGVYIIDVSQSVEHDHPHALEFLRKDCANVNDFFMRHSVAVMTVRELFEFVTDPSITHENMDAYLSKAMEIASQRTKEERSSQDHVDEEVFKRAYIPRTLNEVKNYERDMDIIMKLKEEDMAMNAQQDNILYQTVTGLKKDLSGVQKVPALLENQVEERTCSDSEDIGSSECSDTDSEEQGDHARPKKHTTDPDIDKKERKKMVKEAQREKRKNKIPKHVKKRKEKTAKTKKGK

[2] = molecular target: T2, MST4 (Homo sapiens, UniProt Q9P289)
T2 construct: purchased Eurofins DiscoverX KINOMEscan
T2 sequence (Q9P289 whole entry): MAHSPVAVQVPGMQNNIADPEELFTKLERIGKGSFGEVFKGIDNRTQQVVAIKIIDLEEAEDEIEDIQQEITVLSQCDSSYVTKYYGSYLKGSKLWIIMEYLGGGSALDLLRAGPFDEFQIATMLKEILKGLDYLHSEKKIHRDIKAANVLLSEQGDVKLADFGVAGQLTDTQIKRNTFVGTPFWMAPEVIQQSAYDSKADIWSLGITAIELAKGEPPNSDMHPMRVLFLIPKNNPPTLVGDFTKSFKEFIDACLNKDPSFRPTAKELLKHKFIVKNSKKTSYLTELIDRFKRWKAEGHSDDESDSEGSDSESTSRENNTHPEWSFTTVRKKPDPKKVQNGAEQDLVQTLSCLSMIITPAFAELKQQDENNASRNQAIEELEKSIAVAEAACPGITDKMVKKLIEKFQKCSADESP

[3] = molecular target: T3, EPHA5 (Homo sapiens, UniProt P54756)
T3 construct: purchased Eurofins DiscoverX KINOMEscan
T3 sequence (P54756 25-1037): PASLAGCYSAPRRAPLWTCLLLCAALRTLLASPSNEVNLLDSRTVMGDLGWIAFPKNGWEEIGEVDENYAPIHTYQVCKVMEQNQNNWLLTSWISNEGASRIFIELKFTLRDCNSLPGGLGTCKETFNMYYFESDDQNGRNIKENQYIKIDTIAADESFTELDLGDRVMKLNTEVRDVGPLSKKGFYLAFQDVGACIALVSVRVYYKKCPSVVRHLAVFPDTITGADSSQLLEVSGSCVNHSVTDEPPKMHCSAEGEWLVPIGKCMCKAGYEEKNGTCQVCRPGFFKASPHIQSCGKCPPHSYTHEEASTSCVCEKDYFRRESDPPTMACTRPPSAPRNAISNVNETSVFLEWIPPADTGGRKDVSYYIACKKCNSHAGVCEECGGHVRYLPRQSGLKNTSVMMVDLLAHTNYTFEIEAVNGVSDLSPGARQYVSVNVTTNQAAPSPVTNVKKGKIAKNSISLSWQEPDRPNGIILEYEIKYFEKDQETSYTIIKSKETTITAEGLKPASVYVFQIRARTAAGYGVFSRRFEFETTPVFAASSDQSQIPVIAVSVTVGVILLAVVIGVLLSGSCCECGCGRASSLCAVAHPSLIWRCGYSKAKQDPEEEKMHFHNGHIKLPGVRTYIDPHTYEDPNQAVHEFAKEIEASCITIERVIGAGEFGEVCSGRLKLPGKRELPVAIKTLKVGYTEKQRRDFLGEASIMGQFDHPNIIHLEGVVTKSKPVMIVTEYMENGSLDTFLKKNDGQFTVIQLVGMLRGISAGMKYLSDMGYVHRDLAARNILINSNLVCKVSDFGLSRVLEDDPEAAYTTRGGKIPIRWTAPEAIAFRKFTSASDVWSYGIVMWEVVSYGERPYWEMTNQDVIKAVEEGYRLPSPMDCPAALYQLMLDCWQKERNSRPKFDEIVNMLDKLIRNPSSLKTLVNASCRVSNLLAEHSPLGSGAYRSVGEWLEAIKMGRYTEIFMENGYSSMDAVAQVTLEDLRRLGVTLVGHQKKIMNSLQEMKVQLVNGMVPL

[4] = molecular target: T4, PFTK1 (Homo sapiens, UniProt O94921)
T4 construct: purchased Eurofins DiscoverX KINOMEscan
T4 sequence (O94921 whole entry): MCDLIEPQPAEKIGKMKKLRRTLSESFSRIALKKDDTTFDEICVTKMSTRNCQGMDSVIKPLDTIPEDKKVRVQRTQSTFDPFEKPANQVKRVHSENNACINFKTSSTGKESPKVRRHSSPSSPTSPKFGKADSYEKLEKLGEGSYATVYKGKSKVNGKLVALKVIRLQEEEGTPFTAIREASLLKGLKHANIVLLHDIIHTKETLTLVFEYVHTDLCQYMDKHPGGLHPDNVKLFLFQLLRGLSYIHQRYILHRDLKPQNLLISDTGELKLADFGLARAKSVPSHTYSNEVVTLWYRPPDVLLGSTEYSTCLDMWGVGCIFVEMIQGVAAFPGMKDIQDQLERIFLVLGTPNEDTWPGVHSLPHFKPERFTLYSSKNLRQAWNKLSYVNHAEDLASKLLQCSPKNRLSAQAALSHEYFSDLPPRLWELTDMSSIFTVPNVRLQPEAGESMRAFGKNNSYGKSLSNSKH

[5] = molecular target: T5, LIMK1 (Homo sapiens, UniProt P53667)
T5 construct: purchased Eurofins DiscoverX KINOMEscan
T5 sequence (P53667 whole entry): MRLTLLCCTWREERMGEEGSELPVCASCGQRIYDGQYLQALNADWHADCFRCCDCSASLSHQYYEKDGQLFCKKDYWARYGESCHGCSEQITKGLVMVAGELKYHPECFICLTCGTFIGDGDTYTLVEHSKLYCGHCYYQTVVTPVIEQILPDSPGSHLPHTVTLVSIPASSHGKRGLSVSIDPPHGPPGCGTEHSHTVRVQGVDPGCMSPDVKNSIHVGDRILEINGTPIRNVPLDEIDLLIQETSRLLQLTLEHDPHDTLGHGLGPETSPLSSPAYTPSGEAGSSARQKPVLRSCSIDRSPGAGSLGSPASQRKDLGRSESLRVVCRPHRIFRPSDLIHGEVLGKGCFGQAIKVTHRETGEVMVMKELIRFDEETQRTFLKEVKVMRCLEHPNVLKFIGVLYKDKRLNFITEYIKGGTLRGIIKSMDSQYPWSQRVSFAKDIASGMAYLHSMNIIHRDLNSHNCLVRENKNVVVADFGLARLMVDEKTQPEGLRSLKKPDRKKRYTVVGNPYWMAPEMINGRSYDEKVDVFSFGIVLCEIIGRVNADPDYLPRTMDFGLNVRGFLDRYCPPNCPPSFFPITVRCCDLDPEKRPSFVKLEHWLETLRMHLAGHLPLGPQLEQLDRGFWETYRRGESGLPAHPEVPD

[6] = molecular target: T6, RIPK5 (Homo sapiens, UniProt Q6XUX3)
T6 construct: purchased Eurofins DiscoverX KINOMEscan
T6 sequence (Q6XUX3 1-929): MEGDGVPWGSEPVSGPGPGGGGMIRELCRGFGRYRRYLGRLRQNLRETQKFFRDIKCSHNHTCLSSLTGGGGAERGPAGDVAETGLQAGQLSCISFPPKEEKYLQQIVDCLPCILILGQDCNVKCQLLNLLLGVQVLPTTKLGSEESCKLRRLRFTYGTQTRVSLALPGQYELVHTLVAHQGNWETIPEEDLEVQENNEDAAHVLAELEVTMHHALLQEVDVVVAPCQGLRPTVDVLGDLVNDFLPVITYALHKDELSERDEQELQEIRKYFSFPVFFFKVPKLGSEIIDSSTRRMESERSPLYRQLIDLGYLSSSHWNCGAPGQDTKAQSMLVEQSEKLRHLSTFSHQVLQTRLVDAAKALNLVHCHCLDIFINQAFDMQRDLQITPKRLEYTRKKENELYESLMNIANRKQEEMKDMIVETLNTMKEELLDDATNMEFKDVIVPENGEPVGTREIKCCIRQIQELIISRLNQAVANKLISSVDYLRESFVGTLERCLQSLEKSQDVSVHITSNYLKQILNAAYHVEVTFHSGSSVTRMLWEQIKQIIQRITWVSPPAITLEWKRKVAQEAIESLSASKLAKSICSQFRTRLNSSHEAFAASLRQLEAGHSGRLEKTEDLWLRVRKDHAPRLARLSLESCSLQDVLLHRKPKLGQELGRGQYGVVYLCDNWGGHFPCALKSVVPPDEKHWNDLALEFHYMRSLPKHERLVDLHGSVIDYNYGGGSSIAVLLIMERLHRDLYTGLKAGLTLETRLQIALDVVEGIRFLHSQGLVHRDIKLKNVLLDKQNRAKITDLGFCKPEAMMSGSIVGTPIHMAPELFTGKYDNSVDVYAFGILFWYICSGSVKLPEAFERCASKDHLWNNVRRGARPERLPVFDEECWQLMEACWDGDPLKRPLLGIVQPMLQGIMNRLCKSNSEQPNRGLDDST

[7] = molecular target: T7, FLT3(N841I) (Homo sapiens, UniProt P36888, N841I)
T7 construct: purchased Eurofins DiscoverX KINOMEscan
T7 sequence (P36888 27-993 N841I): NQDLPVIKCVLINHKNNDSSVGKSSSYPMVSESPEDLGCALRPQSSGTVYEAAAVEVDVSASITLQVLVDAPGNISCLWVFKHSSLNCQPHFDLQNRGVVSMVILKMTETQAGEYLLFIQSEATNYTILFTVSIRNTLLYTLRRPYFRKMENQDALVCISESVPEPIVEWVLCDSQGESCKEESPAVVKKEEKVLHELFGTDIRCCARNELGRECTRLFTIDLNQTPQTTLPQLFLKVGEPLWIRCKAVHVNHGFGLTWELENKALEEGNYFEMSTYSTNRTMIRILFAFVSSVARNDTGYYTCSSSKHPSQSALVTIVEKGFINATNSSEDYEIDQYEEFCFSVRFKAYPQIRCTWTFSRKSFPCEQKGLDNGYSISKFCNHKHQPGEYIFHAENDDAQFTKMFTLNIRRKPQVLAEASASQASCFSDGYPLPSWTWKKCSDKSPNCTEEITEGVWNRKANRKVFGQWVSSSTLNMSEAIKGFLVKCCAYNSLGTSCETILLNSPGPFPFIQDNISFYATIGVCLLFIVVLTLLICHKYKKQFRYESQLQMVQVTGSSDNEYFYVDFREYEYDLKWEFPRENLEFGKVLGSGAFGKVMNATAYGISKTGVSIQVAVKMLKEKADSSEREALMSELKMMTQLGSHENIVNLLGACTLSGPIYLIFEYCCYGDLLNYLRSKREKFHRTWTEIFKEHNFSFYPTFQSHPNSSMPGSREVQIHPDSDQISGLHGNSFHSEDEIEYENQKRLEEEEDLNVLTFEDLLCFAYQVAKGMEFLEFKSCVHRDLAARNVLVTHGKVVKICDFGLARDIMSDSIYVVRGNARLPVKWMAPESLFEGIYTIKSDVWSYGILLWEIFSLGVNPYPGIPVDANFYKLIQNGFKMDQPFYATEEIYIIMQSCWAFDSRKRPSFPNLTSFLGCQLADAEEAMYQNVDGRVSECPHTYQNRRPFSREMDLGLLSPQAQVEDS

[8] = molecular target: T8, DMPK2 (Homo sapiens, UniProt Q6DT37)
T8 construct: purchased Eurofins DiscoverX KINOMEscan
T8 sequence (Q6DT37 whole entry): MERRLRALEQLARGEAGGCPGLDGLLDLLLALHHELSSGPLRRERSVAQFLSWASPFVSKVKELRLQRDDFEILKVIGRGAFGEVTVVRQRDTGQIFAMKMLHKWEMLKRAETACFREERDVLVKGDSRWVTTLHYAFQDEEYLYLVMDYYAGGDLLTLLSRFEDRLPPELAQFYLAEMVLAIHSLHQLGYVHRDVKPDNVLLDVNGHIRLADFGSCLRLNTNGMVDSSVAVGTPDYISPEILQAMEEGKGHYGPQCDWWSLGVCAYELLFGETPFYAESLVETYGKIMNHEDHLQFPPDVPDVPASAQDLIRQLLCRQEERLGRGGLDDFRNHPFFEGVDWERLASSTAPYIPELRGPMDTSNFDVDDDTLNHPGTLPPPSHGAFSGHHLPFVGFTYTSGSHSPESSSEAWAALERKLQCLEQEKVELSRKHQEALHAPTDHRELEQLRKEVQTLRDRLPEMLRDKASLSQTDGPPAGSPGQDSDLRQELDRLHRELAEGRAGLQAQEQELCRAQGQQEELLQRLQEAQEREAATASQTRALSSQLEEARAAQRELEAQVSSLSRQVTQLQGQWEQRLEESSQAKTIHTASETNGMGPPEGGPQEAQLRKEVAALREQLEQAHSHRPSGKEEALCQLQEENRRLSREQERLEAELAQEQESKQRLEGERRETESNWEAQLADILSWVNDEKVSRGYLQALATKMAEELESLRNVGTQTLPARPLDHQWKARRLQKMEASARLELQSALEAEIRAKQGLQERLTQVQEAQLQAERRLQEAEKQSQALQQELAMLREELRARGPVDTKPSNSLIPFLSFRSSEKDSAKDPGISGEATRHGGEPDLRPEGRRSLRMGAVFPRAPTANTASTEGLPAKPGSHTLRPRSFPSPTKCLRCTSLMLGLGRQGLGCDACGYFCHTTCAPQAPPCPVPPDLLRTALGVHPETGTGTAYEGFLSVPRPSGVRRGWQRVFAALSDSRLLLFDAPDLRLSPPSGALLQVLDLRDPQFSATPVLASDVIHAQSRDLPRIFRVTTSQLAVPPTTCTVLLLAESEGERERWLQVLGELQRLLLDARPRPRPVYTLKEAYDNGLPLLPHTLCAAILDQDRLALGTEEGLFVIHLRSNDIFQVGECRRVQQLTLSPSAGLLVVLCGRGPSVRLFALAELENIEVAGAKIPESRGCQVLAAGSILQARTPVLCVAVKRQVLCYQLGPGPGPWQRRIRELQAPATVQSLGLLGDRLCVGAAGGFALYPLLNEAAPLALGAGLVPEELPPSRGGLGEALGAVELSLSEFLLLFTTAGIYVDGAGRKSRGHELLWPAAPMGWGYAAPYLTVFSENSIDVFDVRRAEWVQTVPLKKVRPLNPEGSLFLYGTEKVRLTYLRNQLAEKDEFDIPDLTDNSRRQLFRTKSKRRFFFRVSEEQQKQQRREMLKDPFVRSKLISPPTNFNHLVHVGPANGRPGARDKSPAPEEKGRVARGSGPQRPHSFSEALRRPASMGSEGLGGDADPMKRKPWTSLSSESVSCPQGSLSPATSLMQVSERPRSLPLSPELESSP

[9] = molecular target: T9, CDK2 (Homo sapiens, UniProt P24941)
T9 construct: purchased Eurofins DiscoverX KINOMEscan

SMILES | remaining binding at 1 µM [1] [%] | remaining binding at 1 µM [2] [%] | remaining binding at 1 µM [3] [%] | remaining binding at 1 µM [4] [%] | remaining binding at 1 µM [5] [%] | remaining binding at 1 µM [6] [%] | remaining binding at 1 µM [7] [%] | remaining binding at 1 µM [8] [%] | remaining binding at 1 µM [9] [%]
Clc1cc(NCC2CC2)c2ncc(-c3ccc4[nH]ncc4c3)n2n1 [compound 2, 6-Chloro-N-(cyclopropylmethyl)-3-(1H-indazol-5-yl)imidazo[1,2-b]pyridazin-8-amine] | 35 | 88 | 99 | 87 | 100 | 98 | 7.5 | 62 | 88
O=C(CN1CCOCC1)N[C@H]1CC[C@H](Nc2cc(Cl)nn3c(-c4ccc5[nH]ncc5c4)cnc23)CC1 [compound 26] | 33 | 84 | 93 | 99 | 97 | 91 | 0 | 81 | 95
CN1CCC(CNc2cc(Cl)nn3c(-c4cc5nc(Nc6ccccc6)[nH]c5cc4F)cnc23)CC1 [compound 31, 6-Chloro-3-(6-fluoro-2-(phenylamino)-1H-benzo[d]imidazol-5-yl)-N-((1-methylpiperidin-4-yl)methyl)imidazo[1,2-b]pyridazin-8-amine] | 88 | 100 | 99 | 96 | 98 | 79 | 96 | 100 | 98
